Assay results taken from article PMC2762440 (Journal of medicinal chemistry, 2009).

How the values were obtained:
[1] = test system: ICR mice; assay: Forced-swim test in ICR mice; assay type: in vivo, mouse; conditions: for immobility in the forced-swim test vs vehicle: 3 mg/kg, P < 0.05; for duration of immobility in the forced-swim test: doses of 0.3 and 3 mg/kg
[2] = Mouse liver microsome stability assay; assay type: in vitro ADME; conditions: mouse liver microsomes + NADPH, 40 µM compound, 37 °C
[3] = biological target: Human PDE4D3 (Homo sapiens, UniProt Q08499); assay: Inhibition of cAMP hydrolysis by recombinant PDE4D3; assay type: biochemical; conditions: read-out: Human PDE4D3 Ki, recombinant enzyme
[4] = test system: Balb/c mice; assay: Forced-swim test in Balb/c mice; assay type: in vivo, mouse; conditions: for duration of immobility in the forced-swim test: acute, i.p. 30 min prior; for immobility in the forced-swim test vs vehicle: subchronic, i.p. 23, 5 and 1 hr prior
[5] = Human liver microsome stability assay; assay type: in vitro ADME; conditions: human liver microsomes + NADPH, 40 µM compound, 37 °C
[6] = ICR mice, acute, i.p. 30 min prior

Sequence of Human PDE4D3 (Q08499 1-673 isoform Q08499-2): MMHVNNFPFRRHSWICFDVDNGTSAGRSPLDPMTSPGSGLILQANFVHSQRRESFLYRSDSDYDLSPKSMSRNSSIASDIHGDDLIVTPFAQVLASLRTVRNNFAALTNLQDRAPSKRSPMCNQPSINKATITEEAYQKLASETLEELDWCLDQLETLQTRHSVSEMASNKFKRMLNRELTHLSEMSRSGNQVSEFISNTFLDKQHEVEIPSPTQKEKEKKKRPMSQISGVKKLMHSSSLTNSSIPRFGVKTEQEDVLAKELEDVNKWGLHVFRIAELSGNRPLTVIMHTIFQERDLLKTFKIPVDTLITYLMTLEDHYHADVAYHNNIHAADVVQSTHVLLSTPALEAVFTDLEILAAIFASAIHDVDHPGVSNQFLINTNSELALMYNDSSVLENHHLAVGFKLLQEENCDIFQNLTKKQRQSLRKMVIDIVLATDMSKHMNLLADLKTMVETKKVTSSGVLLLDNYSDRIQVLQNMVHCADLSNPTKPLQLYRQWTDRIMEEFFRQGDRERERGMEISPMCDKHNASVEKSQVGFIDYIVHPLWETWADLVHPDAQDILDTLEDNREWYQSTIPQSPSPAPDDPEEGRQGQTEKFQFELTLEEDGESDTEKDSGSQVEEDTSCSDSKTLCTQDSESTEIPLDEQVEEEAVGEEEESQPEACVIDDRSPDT

## COc1ccc(C2CNC(=O)C2)cc1OC1CCCC1 (stereo not drawn) [Rolipram, reference compound]
[1]; acute treatment 0.5 mg/kg, data not shown
  effect in the forced-swim test: did not alter FST behavior

## CNCCC1CCC(CCc2cc(F)ccc2OC)O1 (stereo not drawn) [Compound 24]
[2]
  MLM t1/2: 58.5 min

## COc1ccc(C2=NNC(=O)C3CC=CCC23)cc1OC (stereo not drawn) [Compound 19, 4-(3,4-Dimethoxy-phenyl)-4a,5,8,8a-tetrahydro-2H-phthalazin-1-one, reference compound]
[1]; [6]
  immobility in the forced-swim test vs vehicle: significantly decreased immobility
  duration of immobility in the forced-swim test: decreased duration of immobility in a dose-dependent manner
[3]
  Ki: 6.3 nM

## COc1ccc(F)cc1CCC1CCC(CCN)O1 (stereo not drawn) [Compound 14, 2-{5-[3-(5-Fluoro-2-methoxy-phenyl)-ethyl]-tetrahydro-furan-2-yl}-ethylamine]
[1]; ICR mice, acute, i.p. 30 min prior, 10 and 30 mg/kg
  immobility in the forced-swim test: tended to decrease immobility, but this effect was not statistically significant
[4]; 10 mg/kg
  duration of immobility in the forced-swim test: did not markedly alter the duration of immobility
  immobility in the forced-swim test vs vehicle: did not change immobility

## COc1ccc(F)c(CCCC2CCC(CCNCCCCCN3N=C(c4ccc(OC)c(OC)c4)[C@H]4CC=CC[C@H]4C3=O)O2)c1 (stereo partly drawn) [Compound 22]
[5]
  HLM t1/2: No detectable metabolic instability

## COc1ccc(F)cc1CCCC1CCC(CCN)O1 (stereo not drawn) [Compound 15, 2-{5-[3-(5-Fluoro-2-methoxy-phenyl)-propyl]-tetrahydro-furan-2-yl}-ethylamine]
[4]; 10 mg/kg
  duration of immobility in the forced-swim test: did not markedly alter the duration of immobility
[4]; 1 mg/kg
  immobility in the forced-swim test vs vehicle: did not change immobility

## COc1ccc(F)cc1CCC1CCC(CCNCCCCCN2N=C(c3ccc(OC)c(OC)c3)[C@H]3CC=CC[C@H]3C2=O)O1 (stereo partly drawn) [Compound 21]
[1]; [6]
  immobility in the forced-swim test vs vehicle: significantly decreased immobility
  duration of immobility in the forced-swim test: decreased duration of immobility in a dose-dependent manner
[4]; 1 mg/kg
  immobility in the forced-swim test vs vehicle: did not change immobility
[5]
  HLM t1/2: not detectably metabolized
